This note sets out measurements from patent US20120059009A1, “ANTI-TUMOR AGENT CONTAINING TEGAFUR-GIMERACIL-OTERACIL POTASSIUM COMBINATION DRUG AND OXALIPLATIN” (TAIHO PHARMACEUTICAL CO., LTD., priority 2009, published 2012).

Data set [1] relates to human colorectal cancer COL-1. In words: Anti-tumor effect (IR) in human colorectal cancer COL-1 xenograft model. Particulars: in the combination S-1 7 mg/kg, l-OHP 4.2 mg/kg. Format: in vivo, male nude mice (BALB/cA-nu). On the procedure: A fragment (about 2 mm diameter) of human colorectal cancer COL-1 was transplanted into the right axilla of each of male nude mice (BALB/cA-nu, 4-week old, purchased from CLEA Japan, Inc.), and the tumor volume ((longer diameter)×(shorter diameter)^2/2) of the mouse was calculated. The mice were allocatedinto groups so that the average tumor volumes of the groups were adjusted to about 220 mm^3 (8 mice/group). Drug administration was started on the next day after the day of grouping (Day 0). […] TSU-68 was orally administered once a day at a dose of 200 or 400 mg/kg/day from Day 1 to Day 28. A group to which no drug was administered was set as a control group. During drug administration, the tumor volume of each mouse was measured every 3 to 4 days, and the relative tumor volume (RTV) and the anti-tumor effect (IR (%)) of each group were calculated by the formulas below. The statistical significance of difference of the anti-tumor effect between drug-administration group and control group was analyzed by the Student's t-test (both sides) using the average RTV value of these groups. A P value of p<0.05 was considered statistically significant. Furthermore, the advantage in anti-tumor effect (augmentation effect) of the S-1/l-OHP/TSU-68 combination group, with respect to each of the control group, the S-1/l-OHP combination group and the TSU-68 single administration group, was statistically analyzed through the IUT test. […] Relative tumor volume (RTV)=(Tumor volume on Day N)/(Tumor volume on Day 1) [F1] Anti-tumor effect (IR(%))=[1−(RTV of drug-administration group)/(RTV of control group)]×100
For orientation: A xenograft is tissue or cells of one species grown in another, often human tumour cells in immunodeficient mice.

Data set [2] relates to metastatic colorectal cancer patients. In kind it is in vivo, human. As for the experimental part:
The safety of the case where metastatic colorectal cancer patients (9 cases) were subjected to l-OHP and S-1 combination therapy with administration of TSU-68 was examined. In this study, one cycle of the treatment was consisted of 21 days. To each patient, l-OHP was intravenously administered at a dose of 130 mg/m^2 (per body surface area) on Day 1, and S-1 was orally administered, twice a day after meal, at a daily dose (in terms of tegafur) of 70 mg/m^2 (per body surface area) from Day 1 to Day 14. The 7 days from Day 15 to Day 21 were placed as a rest period. TSU-68 was orally administered every day, twice a day after meal, at a daily dose of 400 mg to 800 mg.
The above study was carried out in order to determine the recommended dose (RD) of TSU-68 in the case where l-OHP and S-1 combination therapy, whose efficacy to colorectal cancer had been established, may be carried out in combination with administration of TSU-68, without causing adverse side effects.
The safety was evaluated according to NCI-CTCAE (3rd edition, the National Cancer Institute's Common Terminology Criteria for Adverse Events version 3.0).

Read-outs that look alike come from different tables or passages of the source.

As to `Cc1[nH]c(/C=C2\C(=O)Nc3ccccc32)c(C)c1CCC(=O)O` [TSU-68, 3-[2,4-dimethyl-5-[[(Z)-2,3-dihydro-2-oxo-1H-indol-3-ylidene]methyl]-1H-pyrrol-3-yl]propanoic acid], in data set [1] (TSU-68 200 mg/kg/day p.o.), the “IR (%) Day 15” value came out at 47.5%, the “IR (%) Day 22” value was found to be 47.8% and the “IR (%) Day 29” value is listed as 49.2%. Besides, in data set [1] (TSU-68 400 mg/kg/day p.o.), the “IR (%) Day 15” value was 51.4%, the “IR (%) Day 22” value turned out to be 46.3% and the “IR (%) Day 29” value is reported as 52.8%. In data set [2] (TSU-68 400 or 800 mg daily with l-OHP and S-1), the “anti-tumor effect, 400 mg group versus 800 mg group” value is “almost equivalent”. Further, in data set [2] (human, in vivo, 21 days), the “dose-limiting toxicity (DLT)” value is “dose-limiting toxicity (DLT) including singultus and skin response in the hands and feet (Grade 3) or neutropenia (Grade 2) was observed”; the “recommended dose (RD) of TSU-68 in the combination therapy” value amounted to 400 mg. The “dose-limiting toxicity (DLT)” value in data set [2] (in vivo) is “no DLT was observed”.
